Laboratory results published in patent US6583274B1, “Crystalline forms of macrolide antibiotic” (Pfizer Inc., priority 1999, dated 2003).

Columns and labels:
[1] = hygroscopicity measurement (weight vs relative humidity on storage); assay type: physicochemical; conditions: for hygroscopicity: about 87% relative humidity, ambient temperature
Experimental: FIG. 3: Weight (Pct) - Relative humidity (Pct).
As used herein, the term “non-hygroscopic” when used to describe a composition of matter means that the composition of matter absorbs moisture at a rate of less than about 0.4% over 24 hours at 90% relative humidity.
A particular advantage conferred by this form is its lack of hygroscopicity.
(§1) From this and other data, it has been determined that crystalline anhydrous CP-472,295 is non-hygroscopic at about 87% relative humidity for about 72 hours at ambient temperature. This unexpected property allows the low-cost, efficient handling and storage of the drug, and the facile incorporation of accurate amounts of the drug into a variety of dosage forms.
as §1, with “Crystalline CP-472,295 monohydrate, like the crystalline anhydrous form described above, is advantageously non-hygroscopic. […] From” for “From”, “crystalline” for “crystalline anhydrous”, “CP-472,295 monohydrate” for “CP-472,295”, “7 days” for “72 hours”
By contrast, the pseudomorph formed when the monohydrate loses water is hygroscopic, and reabsorbs the water of hydration within about 4 hours when stored at about 87% relative humidity at ambient temperature.

[2] = water loss under routine handling conditions; assay type: physicochemical; conditions: routine handling conditions (e.g., 25° C. and 70% relative humidity)

In the case of `CCCNC[C@]1(O)[C@H](C)O[C@@H](O[C@H]2[C@H](C)[C@@H](O[C@@H]3O[C@H](C)C[C@H](N(C)C)[C@H]3O)[C@@](C)(O)C[C@@H](C)CN[C@H](C)[C@@H](O)[C@](C)(O)[C@@H](CC)OC(=O)[C@@H]2C)C[C@@]1(C)OC` [pseudomorph], the hygroscopicity ([1]; pseudomorph formed when the monohydrate loses water) is reported as “hygroscopic” and the “time to reabsorb the water of hydration” value ([1]; stored at about 87% relative humidity at ambient temperature) is reported as no more than 4 h.
For `CCCNC[C@]1(O)[C@H](C)O[C@@H](O[C@H]2[C@H](C)[C@@H](O[C@@H]3O[C@H](C)C[C@H](N(C)C)[C@H]3O)[C@@](C)(O)C[C@@H](C)CN[C@H](C)[C@@H](O)[C@](C)(O)[C@@H](CC)OC(=O)[C@@H]2C)C[C@@]1(C)OC` [crystalline CP-472,295 monohydrate], the hygroscopicity ([1]; about 7 days) was “non-hygroscopic (absorbs moisture at a rate of less than about 0.4% over 24 hours at 90% relative humidity)”.
In the case of `CCCNC[C@]1(O)[C@H](C)O[C@@H](O[C@H]2[C@H](C)[C@@H](O[C@@H]3O[C@H](C)C[C@H](N(C)C)[C@H]3O)[C@@](C)(O)C[C@@H](C)CN[C@H](C)[C@@H](O)[C@](C)(O)[C@@H](CC)OC(=O)[C@@H]2C)C[C@@]1(C)OC` [crystalline anhydrous CP-472,295], the hygroscopicity ([1]; about 72 hours) is reported as “non-hygroscopic (absorbs moisture at a rate of less than about 0.4% over 24 hours at 90% relative humidity)”.
With `CCCNC[C@]1(O)[C@H](C)O[C@@H](O[C@H]2[C@H](C)[C@@H](O[C@@H]3O[C@H](C)C[C@H](N(C)C)[C@H]3O)[C@@](C)(O)C[C@@H](C)CN[C@H](C)[C@@H](O)[C@](C)(O)[C@@H](CC)OC(=O)[C@@H]2C)C[C@@]1(C)OC` [crystalline CP-472,295 sesquahydrate] the “loss of water (stability of hydrate)” value [2] was “readily loses water”.
